Experimental data as given in patent publication US8048455B2, “Treatment of cancer and inflammatory disorder” (Academia Sinica, priority 2006, dated 2011).

Experiments:
NF-κB•DNA complex = assay: Electrophoretic mobility shift assay of NF-κB binding to consensus DNA in LPS-stimulated RAW 264.7 cells; assay type: cell-based, murine; conditions: 100 μM, LPS 1 μg/mL, 90 min
Experimental: EMSA was performed with the […]™ Chemiluminescent EMSA kit (Pierce Biotechnology, Rockford, Ill.). […] The DNA-protein complexes were subjected to 5-10% gradient PAGE. Competition assay with unlabeled oligonucleotide (cold DNA) was performed in parallel. […]

human COX-2 promoter = assay: COX-2 promoter-driven luciferase reporter assay in TPA-treated B16 melanoma cells; assay type: cell-based, murine; conditions: reference control
Source text: A double-mutated COX-2 promoter containing mutations on both NF-κB sites was also constructed (FIG. 2). PPGL-3-Basic vector was used as a negative control in luciferase assays. COX-2 reporter activity in arbitrary units (AU) was normalized to that for the Renilla luciferase reporter.
Murine melanoma B-16 cells co-transfected with the full-length pCOX-2-Luc and internal control plasmid pRL-TK-Luc plasmid constructs were stimulated without (control) or with TPA, in the absence or presence of the indicated concentrations of CREa8. An amount of 10 μg of total protein lysate was subjected to dual luciferase reporter assay. The induction fold of COX promoter activity by TPA treatment only is presented as 100%. The statistical analyses between […] and CREa8, aspirin, or indomethacin (Indo.) treatment were performed using Student's t-test.
B-16 cells were co-transfected with the full-length pCOX-2-Luc and internal control Renilla pRL-TK-Luc plasmid constructs with the LIPOFECTAMINE reagent (Invitrogen). The cells were then stimulated with vehicle (0.001% DMSO) or with 50 ng/mL TPA, in the absence or presence of dLGG for 6 hours. Ten μg of total protein lysate prepared with Passive Lysis Buffer (Promega) was subjected to dual luciferase reporter assay. The induction fold of COX-2 promoter activity by TPA treatment only is presented as 100%.
The contribution of specific cis-acting element binding sites on the transcription of COX-2 was examined. Data were obtained from 2 to 3 experiments with 3 to 6 replicates and expressed as mean±SD. Two-way ANOVA was used to analyze significance of differences.

B16 melanoma = assay: In vivo inhibition of B16 melanoma growth in C57BL/6J mice
Experimental: The chemopreventive effect of the CREa8 subfraction was evaluated on tumor growth using the B16 melanoma C57BL/6J mouse system. Six-week-old animals (4 groups of mice, 5 in each group) were used in this experiment. Group 1 mice (Sham control) were intraperitoneally (i.p.) injected with 20 μL of DMSO every 2 days throughout the experimental period, except 100 μL PBS was injected on day 0. Group 4 mice (Tumor control) were pre-treated with DMSO every 2 days, starting from day—14, for 2 weeks, inoculated with B16 tumor cells (1×10^6 cells/100 μL PBS) subcutaneously (s.c.) on the abdominal area on day 0, and then injected with DMSO every 2 days until day 21. Group 2 mice were i.p. pre-treated with CREa8 (10 mg/kg body weight per dose) every 2 days, starting from day—14, for 2 weeks, s.c. inoculated with B16 tumor cells on day 0, and then continuously treated with CREa8 (i.p.) every 2 days until day 21. Group 3 mice were similarly pre-treated with DMSO every 2 days for 2 weeks, inoculated with B16 tumor cells on day 0, and then treated with cisplatin (i.p.) every 2 days until day 21. The test mice were monitored daily, and body weights and tumor size (average of 2 dimensions) recorded every 2 days. At the end of the experiment (day 21), tumors were excised and weighed.
The cancer prevention efficacy of the dLGG-rich fraction (CREa8) was examined in vivo in 4 groups of mice according to the method described above. Cisplatin, a cancer chemotherapeutic, was used as a reference control.

NO = assay: Plasma nitrite concentration in SNP-treated mice; assay type: in vivo, Female ICR mice; conditions: topical pretreatment 30 min before SNP; dLGG 10 mg/site, PTIO 3.5 mg/site
Experimental: Female ICR mice were topically treated on their shaven back area of a 2-cm diameter (3.14 cm^2/site/mouse) with vehicle control (acetone), SNP (positive control), or with dLGG or PTIO for 30 minutes before SNP application. Mouse plasma samples were subjected to determine the nitrite content followed a published method (Moshage et al. Clin Chem 1995; 41:892-6).
To examine the capability of dLGG to scavenge NO in vivo, the plasma NO concentration in SNP-insulted mice was determined with or without pretreatment with dLGG. Female ICR mice were transdermally treated with 200 μL acetone (vehicle control) or SNP (5.96 mg/site) only for 15 minutes, or pre-treated with dLGG (10 mg/site) or PTIO (3.5 mg/site) for 30 minutes before SNP treatment.

SMILES: CC/C=C\C/C=C\C/C=C\CCCCCCCC(=O)OC[C@H](CO)OC(=O)CCCCCCC/C=C\C/C=C\C/C=C\CC [dLG, 1,2-di-O-α-linolenoyl-sn-glycerol]
- Inhibition of NF-κB•DNA complex formation (structure-activity study) (NF-κB•DNA complex): almost completely inhibited

SMILES: CC(=O)Oc1ccccc1C(=O)O [aspirin, reference compound]
- Suppression of COX-2 promoter activity (human COX-2 promoter; 45 μg/mL): 19%

SMILES: CCCCCCCCCCCCCCCCCC(=O)O [SA, stearic acid, reference compound]
- Inhibition of NF-κB•DNA complex formation (structure-activity study) (NF-κB•DNA complex): little or no detectable effect

SMILES: N.N.[Cl][Pt][Cl] [cisplatin]
- Average tumor size (B16 melanoma; day 7, i.p. every 2 days, tumor control 0.73 cm): 0.29 cm
- Average tumor size, of the tumor control (B16 melanoma; day 17): 73%
- Tumor weight to body weight ratio (B16 melanoma; day 21, tumor control 31.3%): 25.2%
- Body weights versus other groups (B16 melanoma; throughout treatment): no significant differences

SMILES: CC/C=C\C/C=C\C/C=C\CCCCCCCC(=O)O[C@H](CO)CO[C@@H]1O[C@H](CO)[C@H](O)[C@H](O)[C@H]1O [2LGG, 2-O-α-linolenoyl-3-O-β-galactopyranosyl-sn-glycerol]
- Inhibition of NF-κB•DNA complex formation (structure-activity study) (NF-κB•DNA complex): less effective than dLGG and dLG

SMILES: CC/C=C\C/C=C\C/C=C\CCCCCCCC(=O)OC[C@@H](O)CO[C@@H]1O[C@H](CO)[C@H](O)[C@H](O)[C@H]1O [1LGG, 1-O-α-linolenoyl-3-O-β-galactopyranosyl-sn-glycerol]
- Inhibition of NF-κB•DNA complex formation (structure-activity study) (NF-κB•DNA complex): less effective than dLGG and dLG

SMILES: CC1(C)N([O])C(c2ccccc2)=[N+]([O-])C1(C)C [PTIO, 2-phenyl-4,4,5,5-tetramethylimidazoline-1-oxyl-3-oxide, reference compound]
- SNP-induced increase of nitrite plasma concentration (NO): suppressed

SMILES: COc1ccc2c(c1)c(CC(=O)O)c(C)n2C(=O)c1ccc(Cl)cc1 [indomethacin, reference compound]
- Suppression of COX-2 promoter activity (human COX-2 promoter; 15 μg/mL): 28%
